Literature values in patent US20070275008A1, “Synergistic Diabetic Phyto-Nutraceutical Composition” (priority 2006, published 2007).

Tests used:
[1] = test system: hepatic toxicity induced by paracetamol, prednisolone and bromobenzene; conditions: mice; pre-treatment during ten days
[2] = test system: bacterial resistance mechanism against the berberine antimicrobial; conditions: in vitro; in the presence of 5′-MHC

| SMILES | hepatic toxicity induced by paracetamol, prednisolone and bromobenzene [1] | accumulation of berberine in the cells [2] |
| --- | --- | --- |
| COc1cc(/C=C/C(=O)[O-])ccc1O.[Na+] [sodium ferulate] | improved the hepatic toxicity | – |
| COc1cc([C@H]2Oc3cc(-c4cc(=O)c5c(O)cc(O)cc5o4)cc(OC)c3O[C@@H]2CO)ccc1O (racemic) [5′-MHC, 5′-methoxyhydnocarpin] | – | strong increase of accumulation of berberine in the cells |
